US8153167B2, “Herbal medicine for osteoporosis and related conditions” (Medipearl Pte Ltd., priority 2007, dated 2012)
Where two headings read alike, the source gives them in different places.

Assays:
UMR 106 cell line = conditions: UMR 106 cells in vitro; Wang et al. 2001, Meng et al. 2004; cited from earlier work
ovariectomized rats = test: ovariectomized rat osteoporosis animal model; type: in vivo; conditions: femur, three months, dose not given
Protocol: Materials have been tested in ovariectomized rats, a popular and generally accepted osteoporosis animal model.
After orally dosing continuously for three months at 0.12, 0.25, 0.5 and 0.8 g/kg/day, twice a day, the bone mass index, wet weight and dry weight of femur, bone mineral densities of femur and lumbar were measured and calculated. Body weights of rats were measured weekly.
The effects of the purified composition on the body weight of the rats in the groups described above were determined.
We measured the body weight of each experimental animal group weekly.

osteoblast-like cells = conditions: Kim et al. (2003), Ha (2003), cited from earlier work
[1] = tested on: human osteoblast-like cell lines, MG-63 and hFOB; conditions: Kuo et al. (2005); cited from earlier work

Q: Which osteoblastic proliferation activity (UMR 106 cell line) does the source give for `COc1c2ccoc2cc2oc(=O)ccc12` [Bergapten, bergapten] here?
A: less effective than osthole

Q: Which “Wet Weight (mg/cm) ( x ± s)” value (ovariectomized rats) does the source give for `NCCCC(O)(P(=O)(O)O)P(=O)(O)O` [Fosamax ®] here?
A: 205.8757 ± 18.32 mg/cm

Q: Which results are given for `O=C(O)C1=CO[C@@H](O[C@@H]2O[C@H](CO)[C@@H](O)[C@H](O)[C@H]2O)[C@@H]2C(CO)=CC[C@H]12` [GPA, geniposidic acid]?
A: proliferation of osteoblast-like cells (osteoblast-like cells): increases the proliferation of osteoblast-like cells; proliferation of osteoblast-like cells (osteoblast-like cells; listed as geniposidic acid): increased the proliferation of osteoblast-like cells

Q: Which osteoblastic proliferation activity (UMR 106 cell line) does the source give for `COc1ccc2ccc(=O)oc2c1CC=C(C)C` [Osthole, osthole] here?
A: significantly promoted the cells' activity

Q: What about the “differentiation of osteoblast-like cells” value [1] of the same compound?
A: significantly induced the differentiation

Q: Which “proliferation of osteoblast-like cells” value (osteoblast-like cells) does the source give for `OCC1=C[C@@H](O)[C@@H]2C=CO[C@@H](O[C@@H]3O[C@H](CO)[C@@H](O)[C@H](O)[C@H]3O)[C@H]12` [aucubin] here?
A: increased the proliferation of osteoblast-like cells

Q: With `COC(=O)C1=CO[C@@H](O[C@@H]2O[C@H](CO)[C@@H](O)[C@H](O)[C@H]2O)[C@@H]2C(CO)=CC[C@H]12` [geniposide] as the compound, how does the “proliferation of osteoblast-like cells” value (osteoblast-like cells) read?
A: increased the proliferation of osteoblast-like cells

Q: Which osteoblastic proliferation activity (UMR 106 cell line) does the source give for `CC(C)=CCOc1c2occc2cc2ccc(=O)oc12` [imperatorin] here?
A: less effective than osthole
